Here are results for one molecule from patent US20240108570A1, “METHOD AND COMPOSITION FOR DELIVERING A COMPOUND THROUGH A BIOLOGICAL BARRIER” (priority 2012, published 2024).

The structures appear in SMILES notation.

One series deals with in vivo pig skin. Here is the method:
FIG. 13 represents comparison of delivery of sodium fluorescein to in vivo pig skin. In vivo experiments were conducted on 6 female Landrace weaner pigs weighing approx. 10-15 kg (Centre for Advanced Animal Science, The University of Queensland Gatton Campus, Australia). The pigs were anaesthetized intramuscularly by co-administration of Butorphanol (0.15 mg/kg) and Zoletil (5 mg/kg) followed by intubation with isoflurane to maintain unconsciousness. Following anesthesia the flanks of the pigs were washed with soapy water and patted dry. The flank was then shaved gently using an electric razor. The flank was marked, to separate the application areas (2 cm diameter circles, 2 cm apart). Payload administration and amounts were done using the same parameters as for ex vivo. After all the groups/samples were applied and swabbed, the pig was turned over and the procedure repeated to the other flank (resulting in 12 samples per group). Finally, the pig was culled and the center of the application areas was excised using a 6 mm circular punch biopsy. Each sample was placed on dry-ice followed by storage at −20° C. prior to analysis.

The test system of the next series is vaginal tracts of mice. Conditions: mouse, in vivo.
The subject of series [1] is volar forearm skin of human volunteers. The conditions noted are these: in vivo. The text has this: In both Examples 4 and 5, elongate microparticles (EMPs) were fabricated from silicon using deep reactive ion etching. Lithography was used to pattern a silicon wafer that was then coated with SU-8 photoresist. After a post exposure bake, the resist was developed in […]. The SU8 structures remaining served as a physical mask during etching, which were etched using a Bosch process. The etched EMPs were washed three times in acetone, followed by three washes in 100% ethanol and lastly three times in distilled water. Prior to application the EMPs were removed from the silicon wafer.
The ability of silicon EMPs of various diameters to penetrate the skin was determined by application of a mixture of sodium fluorescein and EMPs to the volar forearm of four human, healthy volunteers using a plastic applicator as described in provisional patent application AU2012905650. 50 μL of the sodium fluorescein solution having a concentration of 1 mg/mL was mixed with 5 mg of silicon EMPs and applied to the forearm using a gentle massage motion with the applicator. […]
Three different populations of EMPs were used to assess the influence of EMP diameter on penetration and delivery. […] Grouped data was analysed using a one-way ANOVA with a Tukey's multiple comparison test.

Series [2] deals with freshly excised, non-diseased human skin. It counts as in vitro ADME. Here is the method:
The results are illustrated in FIGS. 5 to 8.
FIGS. 7 and 8 illustrate the effect of application forces on the penetration of sodium fluorescein in conjunction with ‘long’ EMPs. Measurements were made 15 minutes after application to freshly excised, non-diseased human skin (from female, Caucasian, abdominal plastic surgery patients). […] Application forces of 0.2N, 5N and 10N were all applied using a gloved finger on a scale. The excised skin is place on the scale and the finger is applied to the EMPs/skin until a weight is achieved on the scale corresponding to either 0.2, 5 or 10 N.) All forces are effective in improving penetration of sodium fluorescein into the stratum spinosum. There was an apparent optimum application force of 5N under the conditions of the tests.

The test system of a further series is skin of human volunteers. The conditions noted are these: in vivo.
The subject of another series is ex vivo pig skin. The class given is in vitro ADME. As for the experimental part:
FIG. 12 represents comparison of delivery of sodium fluorescein to ex vivo pig skin. Pig skin was sourced and prepared for drug treatment as described for FIG. 10. For EMP delivery, 50 μL of the payload solution (1 mg/mL sodium fluorescein) was gently mixed with or without 5 mg of either the ‘short’ or ‘long’ EMP preparations. The samples were then scraped onto the surface of the skin. Administration was achieved by massaging the solution for 30 s using small circular motions within a 3 cm 2 circular area. To maintain consistency between administrations, a small hand-held applicator was designed resulting in an application force of 0.25 N (as described in AU2012905650). After administration, the payload was left on the skin for 5 min followed by removal of excess solution with cotton swabs. The centre of the application area was excised using a 6 mm circular punch biopsy. A total of 6 samples were done per group. Each sample was stored at −20° C. prior to analysis. […] FIG. 12d represents fluorescence confocal microscopy mosaic images of the pig skin with topical application of sodium fluorescein only (no EMP). […] The images in FIGS. 12d to 12l have been pseudo-colored in greyscale, where black corresponds to 0 (min) fluorescence intensity and white corresponds to 255 (max) fluorescence intensity, as shown on the scale superimposed on FIG. 12l.

Method for excised human skin: Both ex vivo and in vivo tissue samples were analysed en face using fluorescence (excited at 488 nm) and reflectance (excited at 750 nm) confocal microscopy (Vivascope® 1500 Multilaser, Lucid Inc., USA). The microscope also consisted of a dermatoscope, which was used to image and position the skin prior to microscopy. The samples were optically sectioned at 1.5 μm intervals from the surface of the skin down to a depth of 150 μm. Each optical slice consisted of a focal area of 500×500 μm^2.
In relation to the sodium fluorescein signal, an area 300×300 μm^2 in size was selected in the center of the image and the raw integrated density was measured throughout the entire stack. The data were then divided by the analysed area (9000 μm^2) resulting in the sodium fluorescein integrated density per μm^2.
A mixture was formed of by taking 50 μl of sodium fluorescein dye (1 mg/mL) and mixed with or without 5 mg of silica EMP This mixture was applied to previously frozen or freshly excised human skin under varying conditions of EMP length and/or application force.
The skin was stored at −20° C. and then brought to room temperature prior to use. […] It is measured by dividing the sodium fluorescein pixel intensity achieved with EMPs by the sodium fluorescein pixel intensity achieved without EMPs. […]
Method for excised pig skin: Excised pig ears sourced from a local abattoir were washed with soap and water followed by rinsing. The ears were stored at −20° C. until required. The ears were thawed and then gently shaved to remove excessive hair, then rinsed and pat dried. The ventral side of the ear was then separated from the cartilage using a scalpel. The excised skin was pinned down on a cork-board maintaining slight tension across the surface. For EMP delivery, 50 μL of the payload solution (1 mg/mL sodium fluorescein, 0.01 mCi/mL vitamin A or 0.01 mCi/mL, vitamin B3 respectively) was gently mixed with 5 mg of either the ‘short’ or ‘long’ EMP preparations. The samples were then scraped onto the surface of the skin.
Administration was achieved by massaging the payload mixture for 30 s using small circular motions within a 3 cm 2 circular area. […] After administration, the payload was left on the skin for 5 min followed by removal of excess solution with cotton swabs. The center of the application area was excised using a 6 mm circular punch biopsy. A total of 6 samples were done per group. Each sample was stored at −20° C. prior to analysis.
The integrated density of sodium fluorescein is directly related to the concentration of the drug within the skin. […] In this case, skin was pinned out taut on a cork board, epidermal side uppermost. Tritiated compound was applied to the skin surface and left for 15 minutes. […]
Method for vaginal tracts of mice: In these in vivo mouse experiments, a 10 μl quantity of sodium fluorescein (1 mg/ml) was pipetted into the vaginal tracts of mice. In one group of mice, dye application occurred only after prior application of a small quantity of EMP (5 mg). The dye solution was gently massaged with a rod-like applicator. Vaginal tracts were removed at sacrifice and mounted for cryosectioning.

In the case of `O=C([O-])c1ccccc1-c1c2ccc(=O)cc-2oc2cc([O-])ccc12.[Na+].[Na+]` [sodium fluorescein], in the series on in vivo pig skin, the “fluorescence detected below the surface of the skin” value is recorded as “Minimal fluorescence” and the sodium fluorescein signal result is on record as “greater signal”. Further, in the series on vaginal tracts of mice, the “penetration depth within the epithelium” value is listed as “about 60 μm” and the “penetration depth within the epithelium relative to delivery in the absence of EMP” value was “more than 4 times”. For the same molecule, in the series with excised human skin, the “amount of sodium fluorescein penetrated (into the stratum spinosum)” value is “greatest amount” and the “transdermal delivery of sodium fluorescein dye” value is given as “greatly enhance”. Also, the “amount of sodium fluorescein detected” value in series [1] was “no significant difference”. Further, the “increase in delivery of sodium fluorescein dye across the stratum corneum” value in series [2] is given as “several-fold increase”. Also, the “penetration of topically applied sodium fluorescein” value with skin of human volunteers is “more lasting and deeper penetration”. Also, the “fluorescence detected below the surface of the skin” value in the series with ex vivo pig skin is “minimal fluorescence”. The “enhancement of penetration of sodium fluorescein” value with excised pig skin is “superior ability”.
